Consider 18 compounds from article PMC7926352, “Synthesis, Characterization and In Vitro Evaluation of Novel 5-Ene-thiazolo[3,2-b][1,2,4]triazole-6(5H)-ones as Possible Anticancer Agents” (Molecules, 2021).

For orientation: melting point means the temperature of the solid-liquid transition.

For data set [1], the system named is panel of approximately sixty human tumor cell lines. Briefly: NCI-60 human tumor cell lines screen (SRB), full panel. The note with it: 10 μM; for activity at 10 µM: Homo sapiens, 60 cell lines assay in one dose, 48 h; for Positive Cytostatic Effect / Positive Cytotoxic Effect: one dose; for Positive Cytostatic Effect: ratio of number of cell lines with percent growth from 0 to 50 to total number of cell lines; for Positive Cytotoxic Effect: ratio of number of cell lines with percent growth of <0 to total number of cell lines. Type of data set: cell-based. As for the experimental part: Compounds 2a, 2c–f, 2h–l, 3, 5e, 5f were selected for antitumor activity which was performed according to the standard protocols of National Cancer Institute (NCI, Bethesda, MD, USA) Developmental Therapeutic Program (DTP). At the prescreening stage, the compounds were evaluated for antitumor activity at the concentration of 10 µM against a panel of approximately sixty cancer cell lines representing different types of cancer including leukemia, melanoma, lung, colon, CNS, ovarian, renal, prostate and breast cancers.
Among them, three compounds (2d, 2h, 2i) presented excellent cytotoxic and four derivatives (2d, 2h, 2i, 2k) cytostatic properties in one or more cell lines when applied at a concentration of 10 µM. […] The outcomes were calculated and presented in the form of three response parameters (GI50, TGI and LC50) for each cell line via growth percentage inhibition curves. […]
The primary anticancer assay was performed on a panel of approximately sixty human tumor cell lines derived from nine neoplastic diseases (leukemia, melanoma, lung, colon, CNS, ovarian, renal, prostate, and breast cancers), in accordance with the protocol of the National Cancer Institute Drug Evaluation Branch (Bethesda, MD, USA). Tested compounds were added to the culture at a single concentration (10^−5 M) and the cultures were incubated for 48 h. End-point determinations were made with a protein-binding dye, sulforhodamine B (SRB). Results for each tested compound were reported as the percentage of the growth of the treated cells when compared to the untreated control cells. The percentage of the growth was evaluated spectrophotometrically versus controls not treated with test agents. […] Using absorbance measurements [time zero (Tz), control growth in the absence of drug (C), and test growth in the presence of the drug (Ti)], the percentage growth was calculated for each drug concentration. Percentage growth inhibition was calculated as:[(Ti − Tz)/[…]] × 100(1) for concentrations for which Ti ≥ Tz, [(Ti − Tz)/Tz] × 100 for concentrations for which Ti < Tz. Dose-response parameters (GI50, TGI) were calculated for each compound. Growth inhibition of 50% (GI50) was calculated from [(Ti − Tz)/(C − Tz)] × 100 = 50, which is the drug concentration resulting in a 50% lower net protein increase in the treated cells (measured by SRB staining) as compared to the net protein increase seen in the control cells. The drug concentration resulting in total growth inhibition (TGI) was calculated from Ti = Tz. Values were calculated for each of these parameters if the level of activity was reached; however, if the effect was not reached or was excessive, the value for that parameter was expressed as more or less than the maximum or minimum concentration tested. The lowest values were obtained with the most sensitive cell lines. Compounds having GI50 values ≤ 100 μM were declared to be active. The selectivity index (SI) calculated by dividing the full panel MG_MID (full-panel mean-graph midpoint) (μM) of the compounds 2h and 2i by their individual subpanel MG_MID of a cell line (μM) was considered as a measure of compounds’ selectivity. Ratios between 3 and 6 mean moderate selectivity, ratios greater than 6 indicate high selectivity toward the corresponding cell line, while compounds not meeting either of these criteria are rated nonselective.

Data set [2] has as its system phospholipase C-γ2 (PLC-γ2). The arrangement: method as in PMID 19303309. To be noted: at 15 µM; cited from earlier work.
For data set [3], the system named is phospholipase C-γ2 (PLC-γ2). The arrangement: method as in PMID 19303309. The note with it: at 15 µM; cited from earlier work. This is another data set of the same source.

Where two headings read alike, the source gives them in different places. Bounds are passed on as bounds.

Regarding `CC(=O)n1cc(/C=c2\sc3ncnn3c2=O)c2ccccc21` [Compound 2l, (Z)-5-((1-Acetyl-1H-indol-3-yl)methylene)thiazolo[3,2-b][1,2,4]triazol-6(5H)-one], the activity at 10 µM was 105% in data set [1] (read-out: Mean Growth, %) and 66.9 to 141% in data set [1] (read-out: Range of Growth, %). Moreover, in data set [1], the “Positive Cytostatic Effect” value is recorded as 0/59. Also, in data set [1], the “Positive Cytotoxic Effect” value is 0/59.

The compound `Cc1cccc(NC(=O)COc2ccc(Cl)cc2/C=c2\sc3ncnn3c2=O)c1` [Compound 2g, (Z)-2-(4-Chloro-2-((6-oxothiazolo[3,2-b][1,2,4]triazol-5(6H)-ylidene)methyl)phenoxy)-N-(m-tolyl)acetamide] registered a melting point of 260 to 262 °C.

In turn, `O=c1/c(=C/N2CCCCC2)sc2ncnn12` [Compound 6b, (Z)-5-(Piperidin-1-ylmethylene)thiazolo[3,2-b][1,2,4]triazol-6(5H)-one] showed a melting point of 190 to 192 °C.

In the case of `CCOC(=O)N1CCN(/C=c2\sc3ncnn3c2=O)CC1` [Compound 6d, Ethyl(Z)-4-((6-oxothiazolo[3,2-b][1,2,4]triazol-5(6H)-ylidene)methyl)piperazine-1-carboxylate], the melting point was in the range of 204 to 206 °C.

Take `O=c1c(=Cc2cccs2)sc2ncnn12` [Compound 2k, (Z)-5-(Thiophen-2-y-lmethylene)thiazolo[3,2-b][1,2,4]triazol-6(5H)-one]: in data set [1] (read-out: Mean Growth, %), the activity at 10 µM came out at 111%. Further, the activity at 10 µM in data set [1] (read-out: Range of Growth, %) fell in the range of 25.2 to 180%. In data set [1], the “Positive Cytostatic Effect” value is reported as 1/56 and the “Positive Cytotoxic Effect” value is on record as 0/56.

The compound `O=c1/c(=C/N2CCc3ccccc32)sc2ncnn12` [Compound 6a, (Z)-5-(Indolin-1-ylmethylene)thiazolo[3,2-b][1,2,4]triazol-6(5H)-one] had a melting point above 250 °C.

As to `O=c1/c(=C/Nc2ccc(Cl)cc2)sc2ncnn12` [Compound 5f, (E/Z)-5-(((4-Chlorophenyl)amino)methylene)thiazolo[3,2-b][1,2,4]triazol-6(5H)-one], the activity at 10 µM in data set [1] (read-out: Mean Growth, %) is 93.6%; in data set [1] (read-out: Range of Growth, %), 54.4 to 112%. In addition, in data set [1], the “Positive Cytostatic Effect” value is reported as 0/59. For the same compound, in data set [1], the “Positive Cytotoxic Effect” value is recorded as 0/59.

For the compound `COc1ccc(/C=c2\sc3ncnn3c2=O)cc1OC` [Compound 2f, (Z)-5-(3,4-Dimethoxybenzylidene)thiazolo[3,2-b][1,2,4]triazol-6(5H)-one], the activity at 10 µM in data set [1] (read-out: Mean Growth, %) was determined as 108%. Further, the activity at 10 µM in data set [1] (read-out: Range of Growth, %) lay within 86.7 to 262%. In data set [1], the “Positive Cytostatic Effect” value is given as 0/57 and the “Positive Cytotoxic Effect” value is reported as 0/57.

Consider `CC(=O)Oc1ccc(/C=c2\sc3ncnn3c2=O)cc1` [Compound 2d, (Z)-4-((6-Oxothiazolo[3,2-b][1,2,4]triazol-5(6H)-ylidene)methyl)phenyl acetate], for which, in data set [1] (read-out: Mean Growth, %), the activity at 10 µM was found to be 99.7%. Further, the activity at 10 µM in data set [1] (read-out: Range of Growth, %) is -73.9 to 148%. In data set [1], the “Positive Cytostatic Effect” value is listed as 2/58 and the “Positive Cytotoxic Effect” value was 3/58.

Regarding `O=C(O)CSc1nnc[nH]1` [Compound 3, 2-((1H-1,2,4-Triazol-3-yl)thio)acetic Acid], the activity at 10 µM in data set [1] (read-out: Mean Growth, %) was 97.2%; in data set [1] (read-out: Range of Growth, %), 74.8 to 122%. For the same compound, in data set [1], the “Positive Cytostatic Effect” value was 0/59. For the same compound, the “Positive Cytotoxic Effect” value in data set [1] was 0/59.

For `O=c1/c(=C/c2ccccc2[N+](=O)[O-])sc2nc(-c3ccc(F)cc3)nn12` [CCT-196700], in data set [2], the “PLC-γ2 inhibition, calcium release cell-based assay” value is reported as “satisfactory activity parameters”. Further, in data set [3], the “PLC-γ2 inhibition, biochemical assay” value was “satisfactory activity parameters”.

Turning to `O=c1/c(=C/c2ccco2)sc2ncnn12` [Compound 2j, (Z)-5-(Furan-2-ylmethylene)thiazolo[3,2-b][1,2,4]triazol-6(5H)-one], the activity at 10 µM in data set [1] (read-out: Mean Growth, %) was 106%. For the same compound, the activity at 10 µM in data set [1] (read-out: Range of Growth, %) lay within 82.4 to 136%. Moreover, in data set [1], the “Positive Cytostatic Effect” value is recorded as 0/56 and the “Positive Cytotoxic Effect” value is on record as 0/56.

Turning to `CCN(CC)c1ccc(/C=c2\sc3ncnn3c2=O)cc1` [Compound 2e, (Z)-5-(4-(Diethylamino)benzylidene)thiazolo[3,2-b][1,2,4]triazol-6(5H)-one], the activity at 10 µM in data set [1] (read-out: Mean Growth, %) is 102%; in data set [1] (read-out: Range of Growth, %), 61.9 to 134%. Besides, the “Positive Cytostatic Effect” value in data set [1] is reported as 0/58. Also, in data set [1], the “Positive Cytotoxic Effect” value is on record as 0/58.

For the compound `O=c1/c(=C/c2ccccc2F)sc2ncnn12` [Compound 2a, (Z)-5-(2-Fluorobenzylidene)thiazolo[3,2-b][1,2,4]triazol-6(5H)-one], the activity at 10 µM in data set [1] (read-out: Mean Growth, %) was determined as 90%. In data set [1] (read-out: Range of Growth, %), the activity at 10 µM was in the range of 52.8 to 123%. Further, in data set [1], the “Positive Cytostatic Effect” value was 0/59 and the “Positive Cytotoxic Effect” value is recorded as 0/59.

`COc1ccccc1/C=c1\sc2ncnn2c1=O` [Compound 2b, (Z)-5-(2-Methoxybenzylidene)thiazolo[3,2-b][1,2,4]triazol-6(5H)-one] displayed a melting point of 196 to 198 °C.

Regarding `O=c1/c(=C/Nc2cccc(O)c2)sc2ncnn12` [Compound 5e, (E/Z)-5-(((3-Hydroxyphenyl)amino)methylene)thiazolo[3,2-b][1,2,4]triazol-6(5H)-one], the activity at 10 µM in data set [1] (read-out: Mean Growth, %) was found to be 101%. The activity at 10 µM in data set [1] (read-out: Range of Growth, %) is 80.3 to 138%. Further, in data set [1], the “Positive Cytostatic Effect” value was 0/59 and the “Positive Cytotoxic Effect” value was 0/59.

On to `O=c1/c(=C/N2CCN(CCO)CC2)sc2ncnn12` [Compound 6c, (Z)-5-((4-(2-Hydroxyethyl)piperazin-1-yl)methylene)thiazolo[3,2-b][1,2,4]triazol-6(5H)-one], for which the melting point fell in the range of 189 to 192 °C.

Turning to `C=CCOc1ccccc1/C=c1\sc2ncnn2c1=O` [Compound 2c, (Z)-5-(2-(Allyloxy)benzylidene)thiazolo[3,2-b][1,2,4]triazol-6(5H)-one], in data set [1] (read-out: Mean Growth, %), the activity at 10 µM was determined as 103%. Moreover, the activity at 10 µM in data set [1] (read-out: Range of Growth, %) lay within 77.1 to 146%. Also, in data set [1], the “Positive Cytostatic Effect” value is 0/59 and the “Positive Cytotoxic Effect” value is on record as 0/59.
